Read-outs that look alike come from different tables or passages of the source.
Key:
288 kinases = experiment: Large panel kinase profiling, overall selectivity; format: biochemical; details: 1 μM test article, 1 mM ATP
Protocol: (§1) Large panel kinase profiling was performed at AssayQuant Technologies, Inc. 260 Cedar Hill Street, Marlborough, Mass. 01752 using the PhosphoSens® CSox-Sensor platform using 1 μM test article concentration and 1 mM ATP concentration (www.assayquant.com). Reactions were run in Corning, half-area 96-well, white flat round bottom polystyrene NBS microplates (Cat. #3642) after sealing using optically-clear adhesive film (TopSealA-Plus plate seal, PerkinElmer), applied with either a roller or a paddle to eliminate evaporation and resulting drift. The standard total reaction volume was 50 μL. All experiments were ran at 30° C. to control for fluctuations in ambient temperature. Plates were read from the top in kinetic mode (readings taken every 1 min), monitoring fluorescence intensity with filters using Ex 360 nm and Em 485 nm and a band width of 40 and 20 nm, respectively, and a gain of 80. Data analysis was performed using either Graphpad Prism or Gene Data Screener software.

EPHA2 = EPHA2 (Homo sapiens, UniProt P29317); experiment: Large panel kinase profiling; format: biochemical; details: 1 μM test article, 1 mM ATP
Sequence of EPHA2 (P29317 24-976, species assumed): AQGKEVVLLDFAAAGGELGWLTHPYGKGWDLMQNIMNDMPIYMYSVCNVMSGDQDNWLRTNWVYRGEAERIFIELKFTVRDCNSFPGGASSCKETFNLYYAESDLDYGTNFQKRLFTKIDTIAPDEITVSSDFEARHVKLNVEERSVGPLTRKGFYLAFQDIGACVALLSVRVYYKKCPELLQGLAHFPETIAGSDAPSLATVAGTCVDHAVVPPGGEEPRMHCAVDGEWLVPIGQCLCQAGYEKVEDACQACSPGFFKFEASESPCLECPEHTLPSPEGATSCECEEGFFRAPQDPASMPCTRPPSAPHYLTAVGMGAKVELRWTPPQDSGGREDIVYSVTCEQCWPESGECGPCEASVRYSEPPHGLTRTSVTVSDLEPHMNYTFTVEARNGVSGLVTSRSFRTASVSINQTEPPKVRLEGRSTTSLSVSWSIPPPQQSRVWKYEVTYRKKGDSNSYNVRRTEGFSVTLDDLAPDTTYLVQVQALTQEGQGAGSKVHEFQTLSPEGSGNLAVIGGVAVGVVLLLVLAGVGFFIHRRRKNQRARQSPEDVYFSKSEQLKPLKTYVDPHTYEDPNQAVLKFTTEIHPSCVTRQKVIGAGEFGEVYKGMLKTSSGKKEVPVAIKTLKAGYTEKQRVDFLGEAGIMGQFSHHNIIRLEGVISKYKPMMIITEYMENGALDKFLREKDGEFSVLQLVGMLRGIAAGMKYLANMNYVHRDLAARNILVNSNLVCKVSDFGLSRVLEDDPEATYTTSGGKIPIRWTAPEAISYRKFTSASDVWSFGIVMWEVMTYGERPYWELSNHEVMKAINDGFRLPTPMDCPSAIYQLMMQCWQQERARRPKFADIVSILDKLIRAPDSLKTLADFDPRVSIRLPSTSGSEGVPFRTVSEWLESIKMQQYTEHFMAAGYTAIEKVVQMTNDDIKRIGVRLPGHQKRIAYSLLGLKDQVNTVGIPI
Protocol: as §1

PRKCH/PKCH = PRKCH/PKCH (Homo sapiens, UniProt P24723); experiment: Large panel kinase profiling; format: biochemical; details: 1 μM test article, 1 mM ATP
Sequence of PRKCH/PKCH (P24723 whole entry): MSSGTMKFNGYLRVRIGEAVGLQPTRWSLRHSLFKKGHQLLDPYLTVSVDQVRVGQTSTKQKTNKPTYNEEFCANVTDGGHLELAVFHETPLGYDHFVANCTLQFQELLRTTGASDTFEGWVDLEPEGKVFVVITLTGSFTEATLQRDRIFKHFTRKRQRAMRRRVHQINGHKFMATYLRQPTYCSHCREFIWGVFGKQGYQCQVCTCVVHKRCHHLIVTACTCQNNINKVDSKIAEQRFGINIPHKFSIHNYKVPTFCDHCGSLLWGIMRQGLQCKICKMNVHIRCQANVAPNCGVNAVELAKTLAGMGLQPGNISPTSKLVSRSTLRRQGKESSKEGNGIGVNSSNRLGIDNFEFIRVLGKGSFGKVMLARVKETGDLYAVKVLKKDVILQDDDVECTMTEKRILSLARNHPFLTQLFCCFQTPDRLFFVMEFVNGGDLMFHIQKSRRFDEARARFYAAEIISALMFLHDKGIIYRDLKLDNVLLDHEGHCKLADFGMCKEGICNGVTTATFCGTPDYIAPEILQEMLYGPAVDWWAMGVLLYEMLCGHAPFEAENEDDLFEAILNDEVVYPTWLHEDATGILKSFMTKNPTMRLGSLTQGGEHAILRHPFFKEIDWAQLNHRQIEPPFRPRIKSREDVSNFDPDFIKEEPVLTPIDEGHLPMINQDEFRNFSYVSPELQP
Protocol: as §1

CLK1 = target: T1, CLK1 (Homo sapiens, UniProt P49759); experiment: Large panel kinase profiling; format: biochemical; details: 1 μM test article, 1 mM ATP
T1 construct: AssayQuant Technologies, Inc. (service laboratory)
T1 sequence (P49759 whole entry): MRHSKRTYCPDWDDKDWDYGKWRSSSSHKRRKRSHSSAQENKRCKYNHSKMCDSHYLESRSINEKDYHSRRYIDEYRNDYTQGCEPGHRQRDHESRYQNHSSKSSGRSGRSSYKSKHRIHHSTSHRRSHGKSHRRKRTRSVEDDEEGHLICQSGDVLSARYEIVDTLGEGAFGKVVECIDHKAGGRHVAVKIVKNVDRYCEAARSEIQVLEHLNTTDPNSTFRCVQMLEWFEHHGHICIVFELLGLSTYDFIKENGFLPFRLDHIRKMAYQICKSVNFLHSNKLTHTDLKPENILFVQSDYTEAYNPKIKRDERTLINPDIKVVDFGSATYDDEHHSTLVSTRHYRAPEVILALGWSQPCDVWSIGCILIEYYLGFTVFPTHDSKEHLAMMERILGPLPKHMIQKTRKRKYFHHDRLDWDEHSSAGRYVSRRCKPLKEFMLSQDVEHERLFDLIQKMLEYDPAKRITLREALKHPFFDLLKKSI
Protocol: as §1

CSNK2A1/CK2A1 = target: T2, CSNK2A1/CK2A1 (Homo sapiens, UniProt P68400); experiment: Large panel kinase profiling; format: biochemical; details: 1 μM test article, 1 mM ATP
T2 construct: AssayQuant Technologies, Inc. (service laboratory)
T2 sequence (P68400 whole entry): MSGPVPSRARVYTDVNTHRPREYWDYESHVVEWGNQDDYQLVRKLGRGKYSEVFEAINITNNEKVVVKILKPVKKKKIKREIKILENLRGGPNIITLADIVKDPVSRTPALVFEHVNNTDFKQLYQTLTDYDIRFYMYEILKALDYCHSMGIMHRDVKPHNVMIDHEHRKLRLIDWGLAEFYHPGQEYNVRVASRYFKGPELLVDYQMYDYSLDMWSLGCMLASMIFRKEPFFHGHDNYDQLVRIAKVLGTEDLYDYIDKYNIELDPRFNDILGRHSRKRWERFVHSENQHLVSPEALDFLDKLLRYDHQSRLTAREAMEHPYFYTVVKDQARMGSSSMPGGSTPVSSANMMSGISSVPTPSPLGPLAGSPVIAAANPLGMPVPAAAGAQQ
Protocol: as §1

TSSK1 = target: T3, TSSK1 (Homo sapiens, UniProt Q9BXA7); experiment: Large panel kinase profiling; format: biochemical; details: 1 μM test article, 1 mM ATP
T3 construct: AssayQuant Technologies, Inc. (contract laboratory that ran the panel)
T3 sequence (Q9BXA7 1-367): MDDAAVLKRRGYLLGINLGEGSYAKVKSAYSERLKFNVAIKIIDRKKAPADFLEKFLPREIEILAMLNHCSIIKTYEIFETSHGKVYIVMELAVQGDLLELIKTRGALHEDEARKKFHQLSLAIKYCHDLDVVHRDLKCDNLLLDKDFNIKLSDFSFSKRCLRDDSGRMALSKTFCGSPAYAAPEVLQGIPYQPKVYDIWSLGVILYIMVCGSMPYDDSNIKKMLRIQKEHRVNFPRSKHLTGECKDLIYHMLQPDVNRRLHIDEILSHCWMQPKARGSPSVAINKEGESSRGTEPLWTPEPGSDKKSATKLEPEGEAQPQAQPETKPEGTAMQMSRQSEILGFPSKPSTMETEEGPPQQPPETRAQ
Protocol: as §1

FYNA = target: T4, FYNA (Homo sapiens, UniProt P06241); experiment: Large panel kinase profiling; format: biochemical; details: 1 μM test article, 1 mM ATP
T4 construct: AssayQuant Technologies, Inc. (service provider)
Protocol: as §1

MAPK9/JNK2 = target: T5, MAPK9/JNK2 (Homo sapiens, UniProt P45984); experiment: Large panel kinase profiling; format: biochemical; details: 1 μM test article, 1 mM ATP
T5 construct: AssayQuant Technologies, Inc. (service provider)
T5 sequence (P45984 whole entry): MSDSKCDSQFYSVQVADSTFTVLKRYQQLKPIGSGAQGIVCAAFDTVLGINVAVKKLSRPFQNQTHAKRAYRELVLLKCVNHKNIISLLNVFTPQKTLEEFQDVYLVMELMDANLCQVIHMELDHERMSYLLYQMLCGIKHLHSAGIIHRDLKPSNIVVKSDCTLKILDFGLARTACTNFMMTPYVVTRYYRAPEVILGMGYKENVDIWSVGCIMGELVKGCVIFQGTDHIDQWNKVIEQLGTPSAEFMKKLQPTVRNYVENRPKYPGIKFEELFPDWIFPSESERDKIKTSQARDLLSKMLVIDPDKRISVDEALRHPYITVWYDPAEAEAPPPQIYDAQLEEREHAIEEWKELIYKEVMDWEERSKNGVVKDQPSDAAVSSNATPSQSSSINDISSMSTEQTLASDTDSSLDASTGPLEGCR
Protocol: as §1

PRKCA/PKCA = PRKCA/PKCA (Homo sapiens, UniProt P17252); experiment: Large panel kinase profiling; format: biochemical; details: 1 μM test article, 1 mM ATP
Protocol: as §1

ROCK2 = ROCK2 (Homo sapiens, UniProt O75116); experiment: Large panel kinase profiling; format: biochemical; details: 1 μM test article, 1 mM ATP
Protocol: as §1

ERBB4/HER4 = ERBB4/HER4 (Homo sapiens, UniProt Q15303); experiment: Large panel kinase profiling; format: biochemical; details: 1 μM test article, 1 mM ATP
Sequence of ERBB4/HER4 (Q15303 26-1308): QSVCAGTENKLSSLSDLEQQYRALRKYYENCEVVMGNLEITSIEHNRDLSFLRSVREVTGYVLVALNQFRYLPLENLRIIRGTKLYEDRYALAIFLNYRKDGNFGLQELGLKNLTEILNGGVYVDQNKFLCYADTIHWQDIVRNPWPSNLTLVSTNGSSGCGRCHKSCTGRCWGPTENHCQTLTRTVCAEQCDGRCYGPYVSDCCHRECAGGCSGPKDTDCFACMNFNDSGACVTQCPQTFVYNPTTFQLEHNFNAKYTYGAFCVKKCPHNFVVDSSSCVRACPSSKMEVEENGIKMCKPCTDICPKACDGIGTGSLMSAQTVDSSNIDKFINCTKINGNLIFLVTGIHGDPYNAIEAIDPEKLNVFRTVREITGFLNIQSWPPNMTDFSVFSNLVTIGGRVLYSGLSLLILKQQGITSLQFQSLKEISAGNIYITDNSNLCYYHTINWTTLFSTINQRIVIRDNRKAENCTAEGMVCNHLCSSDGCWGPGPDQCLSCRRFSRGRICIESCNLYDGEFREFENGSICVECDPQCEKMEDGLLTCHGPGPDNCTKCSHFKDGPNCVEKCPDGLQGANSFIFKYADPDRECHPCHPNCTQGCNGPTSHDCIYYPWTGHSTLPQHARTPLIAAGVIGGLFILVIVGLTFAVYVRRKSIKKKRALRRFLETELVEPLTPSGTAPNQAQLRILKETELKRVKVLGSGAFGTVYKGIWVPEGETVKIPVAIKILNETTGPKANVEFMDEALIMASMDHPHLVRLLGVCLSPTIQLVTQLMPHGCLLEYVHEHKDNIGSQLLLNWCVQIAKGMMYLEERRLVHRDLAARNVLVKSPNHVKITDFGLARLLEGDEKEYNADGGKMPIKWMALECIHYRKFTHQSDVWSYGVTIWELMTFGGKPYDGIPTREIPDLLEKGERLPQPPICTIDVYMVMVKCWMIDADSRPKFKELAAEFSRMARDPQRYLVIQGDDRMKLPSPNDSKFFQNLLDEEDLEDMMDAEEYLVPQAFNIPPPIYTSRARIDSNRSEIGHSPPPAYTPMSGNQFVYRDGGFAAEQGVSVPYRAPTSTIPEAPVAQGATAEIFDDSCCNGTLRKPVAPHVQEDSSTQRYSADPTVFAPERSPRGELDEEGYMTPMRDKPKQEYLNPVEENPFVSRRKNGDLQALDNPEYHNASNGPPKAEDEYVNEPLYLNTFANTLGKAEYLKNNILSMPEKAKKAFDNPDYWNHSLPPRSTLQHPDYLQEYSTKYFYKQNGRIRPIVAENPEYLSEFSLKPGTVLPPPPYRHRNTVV
Protocol: as §1

[1] = Plasma and total brain concentrations at 1 h post single oral administration to male Wistar Han rats; format: in vivo; details: rat, 10 mg/kg oral gavage; for Kp at 1 h: brain/plasma, read-out: brain to plasma ratio
Protocol: The appropriate amount of test article was dissolved 10% dimethylacetamide (DMA)/90% (20% hydroxypropyl-β-cyclodextrin (HP-B-CD) w/v in water to obtain a final concentration of 1 mg/mL for oral dosing. Sonication, vortex, and homogenization was used as needed. Three male Wistar Han rats aged 6-8 weeks (200-300 grams) were dosed by oral gavage 10 mg/kg solution of the test article.
At 1 h, blood and whole brains were collected. Blood was collected via cardiac puncture into tubes containing potassium EDTA and kept on ice until plasma collection. Plasma was obtained via centrifugation at 4000×g for five minutes at 4° C. Following exsanguination, animals were transcardially perfused with approximately 20 mL of saline, and brains were collected and immediately frozen. Plasma and brains were at −75±15° C. until analysis.
The desired serial concentrations of working solutions were achieved by diluting stock solution of analyte with 50% acetonitrile in water solution. 5 μL of working solutions (2, 5, 10, 50, 100, 500, 1000, 5000, 10000 ng/mL) were added to 50 μL of the male blank Wistar Han rats plasma, brain homogenate to achieve calibration standards of 0.2˜1000 ng/mL (0.2, 0.5, 1, 5, 10, 50, 100, 500, 1000 ng/mL) in a total volume of 55 μL. Four quality control samples at 0.5 ng/mL, 1 ng/mL, 50 ng/mL and 800 ng/mL for plasma, brain homogenate were prepared independently of those used for the calibration curves. These QC samples were prepared on the day of analysis in the same way as calibration standards.
55 μL of standards, 55 μL of QC samples and 55 μL of unknown samples (50 μL of plasma, brain homogenate with 5 μL of blank solution) were added to 200 μL of acetonitrile containing IS mixture for precipitating protein respectively. Then the samples were vortexed for 30 s. After centrifugation at 4° C., 4700 rpm for 15 min, the supernatant was diluted 3 times with water. 10 μL of diluted supernatant was injected into the LC/MS/MS system for quantitative analysis.

[2] = plasma, read-out: Mean [plasma]

Row | SMILES | selectivity in the large panel kinase screen (288 kinases) | inhibition at 1 µM (EPHA2) | inhibition at 1 µM (PRKCH/PKCH) | inhibition at 1 µM (CLK1) | inhibition at 1 µM (CSNK2A1/CK2A1) | inhibition at 1 µM (TSSK1) | inhibition at 1 µM (FYNA) | inhibition at 1 µM (MAPK9/JNK2) | inhibition at 1 µM (PRKCA/PKCA) | inhibition at 1 µM (ROCK2) | inhibition at 1 µM (ERBB4/HER4) | concentration at 1 h ([1]; brain, read-out: Mean [brain]) | Kp at 1 h [1] | concentration at 1 h [1, 2]
1 | C=CC(=O)N1CCCC(c2c(F)cc(C(N)=O)c3[nH]c4c(c23)CCCCC4)C1 (single isomer, unassigned) [Compound 5-6] | highly selective | -1.9% | -3.6% | -26.4% | 0.4% | 7.3% | 12% | -6.3% | 2.3% | -28.3% | -19.7% | 84 ng/mL | 0.43 | 196 ng/mL
2 | C=CC(=O)N1CCC[C@@H](c2c(F)cc(C(N)=O)c3[nH]c4c(c23)CCC4)C1 [Compound 10-2, (S)-8-(1-acryloylpiperidin-3-yl)-7-fluoro-1,2,3,4-tetrahydrocyclo-penta[b]indole-5-carboxamide] | highly selective | -9.6% | -7.9% | -11.1% | -32% | 14% | -24.6% | 3.8% | -3.5% | 21.2% | 17.1% | 116 ng/mL | 0.29 | 421 ng/mL
3 | C=CC(=O)N1CCC[C@@H](c2c(F)cc(C(N)=O)c3[nH]c4c(c23)CC2(CC4)CC2)C1 [Compound 6-2, (S)-5-(1-acryloylpiperidin-3-yl)-6-fluoro-1,2,4,9-tetrahydrospiro[carbazole-3,1′-cyclopropane]-8-carboxamide] | highly selective | 9.5% | 5.3% | -10.4% | -12% | -3% | -5.2% | 19.7% | 14.7% | 0.8% | 2.4% | 108 ng/mL | 0.28 | 395 ng/mL
